# Laboratory results published in publication PMC12040169 (PLOS Biology, 2025).
# Assay: in vitro
# Settings: human, hela cells, % viability
row,Structure (SMILES),"viability at 28.5 h, 10 µM [%]"
1,O=c1[nH]nc2cc(SCc3ccc(Cl)cc3)ncn12 [CBK300540],107
2,COc1cccc(NC(=O)CSc2nnc(-c3ccccc3O)n2-c2ccccc2)c1 [CBK268343],108
3,CC1(CNC(=O)C2CC(=O)N(C3CCCCC3)C2)COC1 (stereo not shown) [CBK281754],97
4,Cc1ccccc1-c1ccccc1CC1(C(N)=O)CCN(C(=O)Cc2ccccc2)CC1 [CBK285724],106
5,CCC1CCCCN1C(=O)c1sc2ncccc2c1N (stereo not shown) [CBK081410],112
6,CCNC(=O)O[C@@H]1CO[C@H]2[C@@H]1OC[C@@H]2NC(=O)c1ccc(C)cc1 [CBK289472],106
7,Cc1ccc(C(=O)C2=C(O)C(=O)N(Cc3cccnc3)C2c2cccc([N+](=O)[O-])c2)cc1 (stereo not shown) [CBK264593],89.3
8,Nc1nc(SCCCC(=O)NC2CCCCC2)nc2sc3c(c12)CCCC3 [CBK266176],99.7
9,Nc1cccc(-c2cncc(N(CCO)CCO)n2)c1 [CBK065808],95.5
10,Cc1ccc(-c2nnc(CNC(=O)C(c3ccccc3)c3ccccc3)o2)s1 [CBK286299],102
11,Cc1cc(COc2ccnc(N3CCCN(CCCC#N)CC3)n2)no1 [CBK084144],96.8
12,Nc1ccc(C(=O)Nc2ccc(Nc3cc(-c4cccnc4)ncn3)cc2)cc1 [CBK037823],94.6
13,Cc1cc(C)nc(NC2=NC(=O)CC(C(=O)O)N2c2ccc(Cl)cc2Cl)n1 (stereo not shown) [CBK286968],94.5
14,Fc1ccccc1COc1ccccc1CNCCN1CCOCC1 [CBK278222C],96.4
15,O=C(CC1C(=O)NCCN1C(=S)Nc1ccccc1)Nc1ccc2c(c1)OCCO2 (stereo not shown) [CBK267999],95.9
16,COC(=O)c1cccc(COC(=O)c2ccc3nc(C)c(C)nc3c2)c1 [CBK269641],95.2
17,c1csc(COc2nccnc2-c2cc3ccccc3s2)c1 [CBK106786],99.5
18,COCCCNCCn1cnc2c(N)ncnc21 [CBK277059],88.9
19,N#Cc1sc(-c2ccc(F)cc2)cc1NC(=O)c1cccc([N+](=O)[O-])c1 [CBK066845],93.3
20,c1cncc(-c2ccc(N3CCN(CCN4CCCC4)CC3)nc2)c1 [CBK037661],108
21,CC(=O)Nc1ccc(N2C(=O)c3ccc(S(=O)(=O)c4ccc5c(c4)C(=O)N(c4ccc(NC(C)=O)cc4)C5=O)cc3C2=O)cc1 [CBK262105],77.8
22,COc1ccc(C(=O)c2sc3nc(C)c(C)c(C)c3c2N)cc1OC [CBK074427],72.7
23,CN1CCC(CNC(=O)Cn2ccc3ccc(F)cc32)(N(C)C)CC1 [CBK282569],107
24,Cc1cc(C)c(OCCOCCN2CCNCC2)c(Br)c1 [CBK266079G],99.6
25,O=C(N/N=C/c1ccc(O)c(I)c1)c1ccncc1 [CBK262144],86.2
26,COc1ccccc1CNCCCN1CCOCC1 [CBK278310C],96.2

row,Structure (SMILES),"viability at 28.5 h, 10 µM [%]"
1,CC1CCN(Cc2ccc(-c3nnn(CC(=O)NCc4ccc(C(F)(F)F)cn4)n3)cc2)CC1 [CBK149722T],104
2,NC(=O)C1CCN(C(=O)C2=NN(c3ccccc3)C(c3ccccc3)C2)CC1 (stereo not shown) [CBK296760],99.1
3,Cc1ccc(CN(CCCn2ccnc2)Cc2ccncc2)o1 [CBK283101],108
4,CCn1cnc2c1CCC(CN/C(=N/C(=O)c1ccccc1)NC)C2 (stereo not shown) [CBK010036],103
5,COc1ccccc1NC(=O)C(c1ccccc1)N1CCOCC1 (stereo not shown) [CBK269561],107
6,CN1CCC(N(C)C(=O)c2cc3oc(-c4ccccc4)nc3c(=O)n2C)C1 (stereo not shown) [CBK200424T],93.9
7,Cc1[nH]c2ccccc2c1C(=O)CSc1nnc(Cc2cccs2)n1C [CBK268663],105
8,NC(=O)COc1ccc(CNC(=O)CN2CCc3sccc3C2)cc1 [CBK306111],99.4
9,Cc1nn(C)cc1C(C)NC(=O)c1ccc(CN(C)C)o1 (stereo not shown) [CBK282083],96.1
10,COc1cc(-c2nccnc2NCCc2c[nH]c3ccccc23)cc(OC)c1OC [CBK038015],102
11,Oc1ccc(Nc2nc3nonc3nc2Nc2ccccc2)cc1 [CBK263551],94
12,Cn1c(COc2cncc(Cl)n2)cc2ccccc21 [CBK176002],89.9
13,CCC(CN1CCCC1)NC(=O)C1(c2ccccc2)CCOCC1 (stereo not shown) [CBK282758],96.6
14,O=C(O)CSc1ncnc2ccccc12 [CBK262069],94.4
15,O=c1[nH]c(=O)c2cc(S(=O)(=O)N3CCCC(c4ccccc4)C3)ccc2[nH]1 (stereo not shown) [CBK286381],106
16,O=C(c1ccc(F)cc1)N1CCC(c2cc3cnccc3[nH]2)CC1 [CBK283445],87.3
17,O=C(NCCc1ccccc1Cl)C1(Cc2ccc(-c3cccnc3)cc2)CCOCC1 [CBK285590],95.5
18,CN(C)c1cccc(Nc2ccc(-c3ccc(CCC(=O)O)cc3)cn2)c1 [CBK036918],97.2
19,NS(=O)(=O)c1ccc(CCNS(=O)(=O)c2ccccc2[N+](=O)[O-])cc1 [CBK264369],111
20,COC[C@H]1CCCN1C(=O)CC[C@H]1CNC(=O)[C@@H]2[C@@H](CCN2C2CCCCC2)N1C [CBK289039],89.7
21,COc1ccc2[nH]c3c(c2c1)CCNC31CCCN(CCc2ccc(F)cc2)C1 (stereo not shown) [CBK039246],90.9
22,CCNC(=O)Nc1ncc(-c2ccccc2)c2cccnc12 [CBK070624],95.3
23,Cc1cc(OC(C)C(=O)Nc2ccc(S(=O)(=O)Nc3onc(C)c3C)cc2)cc(C)c1Cl (stereo not shown) [CBK267887],98.7
24,O=C(CC1CCCO1)N1CCn2c(nnc2-c2cncc(Br)c2)C1 (stereo not shown) [CBK304762],91.4
25,COc1cccc(CN2CCN(Cc3cc(OC)cc(OC)c3)CC2)c1 [CBK033622],91.2
26,O=C(COc1cccc(Cl)c1)NCCc1ccc(S(=O)(=O)NC(=O)NC2CCCCC2)cc1 [CBK011798],93.4

row,Structure (SMILES),"viability at 28.5 h, 10 µM [%]"
1,CC(C)NC(=O)c1cc([C@H]2CC[C@H](CNC(=O)Cn3cccn3)CC2)nc2ccccc12 [CBK285859],112
2,O=C(CC1Oc2ccccc2NC1=O)Nc1ccc2c(c1)CN(Cc1ccccc1)C2 (stereo not shown) [CBK285991],88
3,c1ccc2c(CCN3CCC(Oc4cncc(OCCN5CCOCC5)n4)C3)c[nH]c2c1 (stereo not shown) [CBK084500],100
4,CC(=O)c1ccc(-c2nccnc2NCc2cccc([N+](=O)[O-])c2)s1 [CBK037509],106
5,Cc1ccc(C2(O)CCN(C(=O)CC3CCN(C(=O)CC4CCCCC4)CC3)C2)cc1 (stereo not shown) [CBK286132],96.9
6,c1cc(OCc2cccs2)cc(N2CCNCC2)c1 [CBK022557F],89.3
7,CN1CCN(S(=O)(=O)c2ccc(NC(=O)c3cc(-c4ccncc4)nc4ccc(Cl)cc34)cc2)CC1 [CBK267730],98.6
8,c1ccc(-c2cc(CC3(NCC4CCCCC4)COC3)no2)nc1 [CBK289644],93
9,CN(C)C(=O)c1cc(-c2cccc(N(C)C)c2)cnc1NCC1CC1 [CBK076333],85.1
10,c1cncc(-c2nnc(SCc3nc4ccccc4[nH]3)o2)c1 [CBK264543],98.1
11,CC1(C)CCN(Cc2ccccc2)C1CC#N (stereo not shown) [CBK006978C],102
12,CS(=O)(=O)c1ncc(Cl)c(C(=O)N(Cc2ccccc2)Cc2ccco2)n1 [CBK269603],29.3
13,O=C(NCCOc1ccc(F)cc1)c1cccs1 [CBK057930],116
14,Cc1cccc(-c2nc(CN(C)CC(=O)NC(C)C)no2)c1 [CBK305109],115
15,Cc1cc(N2CCCN3CCCCCC32)nc(N)n1 (stereo not shown) [CBK169746],102
16,CN(C)/C=N/c1nc(=O)n([C@H]2CC(O)[C@@H](CO)O2)cc1/C=C/C(=O)NCCCCCCNC(=O)C(F)(F)F (stereo partly shown) [CBK201330],97.1
17,O=C(NCc1ccc(Cl)cc1)N1CCCC(CO)C1 (stereo not shown) [CBK156053],96.6
18,Cc1nn(CC(=O)N(C)C(C)c2ccncn2)c(=O)c2ccccc12 (stereo not shown) [CBK307669],89
19,COc1cc(CCN2CCCCC2)c(C(C)n2cncn2)cc1OC (stereo not shown) [CBK023837G],90.3
20,O=C(O)c1ccc(NC(=O)c2cn(-c3ccccc3)nc2-c2cc3ccccc3oc2=O)cc1 [CBK266432],99.8
21,CC(=O)NC(c1nccs1)C1CCCN(C(=O)C2CCCCC2)C1 (stereo not shown) [CBK282170],113
22,Cc1c(Br)c([N+](=O)[O-])nn1C(C)C(=O)NCc1ccco1 (stereo not shown) [CBK269108],92.2
23,CCn1nc(C)c(-c2cncn2CCCOc2ccccc2C)c1C [CBK281761],99.7
24,CC1(CNS(=O)(=O)Cc2cc(F)cc(F)c2)COC1 [CBK281413],91.3
25,COCc1nnc(NS(=O)(=O)c2ccc(Br)cc2)s1 [CBK045526],115
26,N#Cc1ccc(COc2cccc(C(F)(F)F)c2)cc1 [CBK002811],103

# Same assay, conditions: human, hela cells, % viability, bulk resorufin, single well
row,Structure (SMILES),"viability at 28.5 h, 10 µM [%]"
1,COc1ccccc1C1OC(=O)CC1C(=O)N1CCC(C(C)=O)(c2ccccc2)CC1 (stereo not shown) [CBK091324],104
